Measurements as given in ChEMBL document CHEMBL2016451, “Antimycobacterial activity of bisbenzylisoquinoline alkaloids from Tiliacora triandra against multidrug-resistant isolates of Mycobacterium tuberculosis” (Bioorg Med Chem Lett, 2012).
In brackets after ≈: the same amount, converted by molar mass.

How the values were obtained:
MRC5 [1] = assay: Cytotoxicity against human MRC5 cells at 6 ug/ml by MTT assay; assay type: cell-based
MRC5 [2] = assay: Cytotoxicity against human MRC5 cells by MTT assay; assay type: cell-based
MRC5 [3] = assay: Cytotoxicity against human MRC5 cells at 2.1 ug/ml by MTT assay; assay type: cell-based
MRC5 [4] = assay: Cytotoxicity against human MRC5 cells at 1 ug/ml by MTT assay; assay type: cell-based
MRC5 [5] = assay: Cytotoxicity against human MRC5 cells at 2 ug/ml by MTT assay; assay type: cell-based
[6] = tested on: Mycobacterium tuberculosis; assay: Antimycobacterial activity against Mycobacterium tuberculosis H37Ra after 16 to 24 hrs by alamar blue assay; assay type: functional
[7] = tested on: Mycobacterium tuberculosis; assay: Antimycobacterial activity against p-aminosalicylic acid-resistant Mycobacterium tuberculosis H37Rv ATCC 35821 after 16 to 24 hrs by alamar blue assay; assay type: functional
[8] = tested on: Mycobacterium tuberculosis; assay: Antimycobacterial activity against Mycobacterium tuberculosis H37Rv after 16 to 24 hrs by alamar blue assay; assay type: functional

Compound | Activity (MRC5 [1]) | IC50 (MRC5 [2]) [µg/mL] | Activity (MRC5 [3]) | Activity (MRC5 [4]) | Activity (MRC5 [5]) | MIC [6] [µg/mL] | MIC [7] [µg/mL] | MIC [8] [µg/mL]
COc1ccc2cc1-c1cc(ccc1O)C[C@@H]1NCCc3cc4c(cc31)Oc1c(c(OC)cc3c1[C@H](C2)N(C)CC3)O4 | Non-toxic | 3.8 (≈ 6.75 µM) | Non-toxic | Non-toxic | Non-toxic | 3.1 (≈ 5.51 µM) | 1.5 (≈ 2.67 µM) | 3.1 (≈ 5.51 µM)
COc1ccc2cc1-c1cc(ccc1O)C[C@H]1c3cc4c(cc3CCN1C)Oc1c(OC)cc3c(c1O4)[C@@H](C2)N(C)CC3 [TILIACORINE] | Non-toxic | 3.87 (≈ 6.71 µM) | Non-toxic | Non-toxic | Non-toxic | 3.1 (≈ 5.38 µM) | 3.1 (≈ 5.38 µM) | 3.1 (≈ 5.38 µM)
COc1ccc2cc1-c1cc(cc(Br)c1O)C[C@H]1c3cc4c(cc3CCN1C)Oc1c(OC)cc3c(c1O4)[C@H](C2)N(C)CC3 | Non-toxic | 20 (≈ 30.5 µM) | Non-toxic | Non-toxic | Non-toxic | 6.2 (≈ 9.46 µM) | 1.5 (≈ 2.29 µM) | 3.1 (≈ 4.73 µM)
COc1ccc2cc1-c1cc(ccc1O)C[C@H]1c3cc4c(cc3CCN1C)Oc1c(OC)cc3c(c1O4)[C@H](C2)N(C)CC3 [TILIACORININE] | Non-toxic | 3.13 (≈ 5.43 µM) | Non-toxic | Non-toxic | Non-toxic | 3.1 (≈ 5.38 µM) | 3.1 (≈ 5.38 µM) | 6.2 (≈ 10.8 µM)
